Measured values taken from patent US20250367160A1, “USE OF GUAIJAVERIN IN PREPARATION OF EYE PROTECTION PRODUCT” (Innovation Center of Yangtze River Delta, ZJU, priority 2024, published 2025).

Tested on: ocular apoptotic cells of the zebrafish
Assay: Anti-blue light eye protection efficacy, AO staining of ocular apoptotic cells in zebrafish blue light eye damage model
Assay type: in vivo
Conditions: 62.5 μg/mL, aqueous, 28° C., 1 d, n = 10; model group 45833 ± 4825, normal control 12203 ± 1124
Procedure: Wild-type AB zebrafish at 1 dpf were randomly selected and irradiated with blue light after membrane rupture to establish the zebrafish blue light eye damage model. Model zebrafish with desirable development status were selected at 3 dpf and randomly distributed in 6-well plates, with 30 zebrafish in each well (experimental group) were treated. Different concentrations of guaijaverin (see Table 2 for concentrations) were administered aqueously, and lutein at a concentration of 62.5 μg/mL were used as a positive control, while a normal control group and a model group were also set up, with a volume of 3 mL per well. After 1 d of treatment at 28° C., the zebrafish in each experimental group were stained with AO in the dark for 30 min and washed 3 times with standard dilution water. 10 zebrafish were randomly selected from each experimental group and photographed under a fluorescence microscope. The data were analyzed and collected using Image J software. The fluorescence intensity of ocular apoptotic cells of the zebrafish was statistically analyzed. The anti-blue light eye protection efficacy of guaijaverin was evaluated based on the statistical analysis results of the above indicators. The statistical result was expressed as mean±SE.

Compound: CC1=C[C@H](O)CC(C)(C)[C@H]1/C=C/C(C)=C/C=C/C(C)=C/C=C/C=C(C)/C=C/C=C(C)/C=C/C1=C(C)C[C@@H](O)CC1(C)C [Lutein, lutein, reference compound]
- Fluorescence intensity of ocular apoptotic cells (pixel, mean ± SE): 21751 ± 2993 pixel
